The text below walks through data of the supplement of paper PMC10307832.

Holding throughout (test): relative viability (nuclei count vs DMSO), 5 days (fraction); higher = more cells survive
Compound in test [1]: CN1CCC(CNc2ccc3ncc(-c4cccc(OC(F)(F)F)c4)n3n2)CC1 [SGI-1776] + Cc1nc(Nc2ncc(C(=O)Nc3c(C)cccc3Cl)s2)cc(N2CCN(CCO)CC2)n1 [Dasatinib] (partner 0.075 µM)
The method, boiled down: (§1)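 Relative viability divides the nuclei count in treated wells by that in vehicle wells. Lung cancer cell lines were seeded in 1536-well plates, dosed by pin tool the next day, and fixed and stained after 5 days in one step with final 0.05% Triton X-100, 1% formaldehyde and 1 ug/ml Hoechst. Dosing was a single drug or a fixed anchor-drug dose plus five library-drug doses (not always all listed) in √10 steps, and values are medians of duplicate plates imaged at 4×.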

Compound in test [2]: C1COCCN1C2=NC(=NC3=C2OC4=C3C=CC=N4)C5=CC(=CC=C5)NC(=O)C6=CN=C(C=C6)N + Nc1ncn([C@H]2C[C@H](O)[C@@H](CO)O2)c(=O)n1 [Decitabine] (partner 2 µM)
In short, it runs like this:
as §1

Compound in test [3]: CN1CCC(CNc2ccc3ncc(-c4cccc(OC(F)(F)F)c4)n3n2)CC1 [SGI-1776] + CC(C)C[C@H](NC(=O)[C@H](Cc1ccccc1)NC(=O)c1cnccn1)B(O)O [Bortezomib] (partner 0.002 µM)
The method, boiled down: as §1

Compound in test [4]: CN1CCC(CNc2ccc3ncc(-c4cccc(OC(F)(F)F)c4)n3n2)CC1 [SGI-1776] + O=C(c1cc(Cc2n[nH]c(=O)c3ccccc23)ccc1F)N1CCN(C(=O)C2CC2)CC1 [Olaparib] (partner 8 µM)
The method, boiled down:
as §1

UMC-11: the relative viability was 0.449 in test [1] (first compound 0.08 µM); 0.455 in test [1] (first compound 0.8 µM); 0.615 in test [1] (first compound 2.53 µM); 0.392 in test [1] (first compound 8 µM); 0.582 in test [2] (first compound 0.02 µM); 0.537 in test [2] (first compound 0.06325 µM). For the same cell line, the relative viability was 0.551 in test [2] (first compound 0.2 µM); 0.537 in test [2] (first compound 0.6325 µM); 0.573 in test [2] (first compound 2 µM); 0.741 in test [3] (first compound 0.08 µM); 0.809 in test [3] (first compound 0.8 µM); 0.647 in test [3] (first compound 2.53 µM). In addition, the relative viability in test [3] (first compound 8 µM) was determined as 0.688; in test [4] (first compound 0.08 µM), 0.337; in test [4] (first compound 0.8 µM), 0.433; in test [4] (first compound 2.53 µM) it was 0.289; in test [4] (first compound 8 µM), 0.206.
